Patent US8592629B2, “Sulfonamide derivatives as Nav 1.7 inhibitors” (Pfizer Limited, priority 2010, dated 2013)

Target: T1, Nav1.7 (or SCN9A) channel (Homo sapiens, UniProt Q15858)
T1 construct: expressed in transfected cells
Assay: Nav1.7 (hSCN9A) block in HEK cells, Ionworks Quattro automated electrophysiology
Assay type: cell-based
Settings: Ionworks Quattro assay (IW); HEK cells stably transfected with hSCN9A; read-out: Nav1.7 EIC50 (IW)
Protocol: The ability of the compounds of formula (I) to block the Nav1.7 (or SCN9A) channel were measured using the assay described below.
Human Embryonic Kidney (HEK) cells were transfected with an hSCN9A construct using lipofectamine reagent (Invitrogen), using standard techniques. Cells stably expressing the hSCN9A constructs were identified by their resistance to G-418 (400 μg/ml). Clones were screened for expression using the whole-cell voltage-clamp technique.
HEK cells stably transfected with hSCN9A were maintained in DMEM medium supplemented with 10% heat-inactivated fetal bovine serum and 400 μg/ml G-418 in an incubator at 37° C. with a humidified atmosphere of 10% CO2. For HTS, cells were harvested from flasks by trypsinization and replated in an appropriate multi-well plate (typically 96 or 384 wells/plate) such that confluence would be achieved within 24 hours of plating. For electrophysiological studies, cells were removed from the culture flask by brief trypsinization and re-plated at low density onto glass cover slips. Cells were typically used for electrophysiological experiments within 24 to 72 hours after plating.
Electrophysiological assays were also conducted using the lonworks Quattro automated electrophysiological platform (Molecular Devices Corp). Intracellular and extracellular solutions were as described above with the following changes, 120 μg/ml amphotericin was added to the intracellular solution to perforate the membrane and allow electrical access to the cells. hSCN9A cells were grown and harvested as for PatchXpress and cells were resuspended in extracellular solution at a concentration of 1×10^6 cells/ml. The onboard liquid handling facility of the Ionworks Quattro was used for dispensing cells and application of test compounds. A voltage protocol was then applied that comprised of a voltage step to fully inactivate the sodium channels, followed by a brief hyperpolarized recovery period to allow partial recovery from inactivation for unblocked sodium channels, followed by a test depolarized voltage step to assess magnitude of inhibition by test compound. Compound effect was determined based on current amplitude difference between the pre-compound addition and post-compound addition scans.
Compounds of the Examples were tested in the assays described above and found to have the Nav1.7 EIC50 (μM) values specified in the table below. All data are derived from the PatchXpress assay unless explicitly stated otherwise.

T1 sequence (Q15858 whole entry): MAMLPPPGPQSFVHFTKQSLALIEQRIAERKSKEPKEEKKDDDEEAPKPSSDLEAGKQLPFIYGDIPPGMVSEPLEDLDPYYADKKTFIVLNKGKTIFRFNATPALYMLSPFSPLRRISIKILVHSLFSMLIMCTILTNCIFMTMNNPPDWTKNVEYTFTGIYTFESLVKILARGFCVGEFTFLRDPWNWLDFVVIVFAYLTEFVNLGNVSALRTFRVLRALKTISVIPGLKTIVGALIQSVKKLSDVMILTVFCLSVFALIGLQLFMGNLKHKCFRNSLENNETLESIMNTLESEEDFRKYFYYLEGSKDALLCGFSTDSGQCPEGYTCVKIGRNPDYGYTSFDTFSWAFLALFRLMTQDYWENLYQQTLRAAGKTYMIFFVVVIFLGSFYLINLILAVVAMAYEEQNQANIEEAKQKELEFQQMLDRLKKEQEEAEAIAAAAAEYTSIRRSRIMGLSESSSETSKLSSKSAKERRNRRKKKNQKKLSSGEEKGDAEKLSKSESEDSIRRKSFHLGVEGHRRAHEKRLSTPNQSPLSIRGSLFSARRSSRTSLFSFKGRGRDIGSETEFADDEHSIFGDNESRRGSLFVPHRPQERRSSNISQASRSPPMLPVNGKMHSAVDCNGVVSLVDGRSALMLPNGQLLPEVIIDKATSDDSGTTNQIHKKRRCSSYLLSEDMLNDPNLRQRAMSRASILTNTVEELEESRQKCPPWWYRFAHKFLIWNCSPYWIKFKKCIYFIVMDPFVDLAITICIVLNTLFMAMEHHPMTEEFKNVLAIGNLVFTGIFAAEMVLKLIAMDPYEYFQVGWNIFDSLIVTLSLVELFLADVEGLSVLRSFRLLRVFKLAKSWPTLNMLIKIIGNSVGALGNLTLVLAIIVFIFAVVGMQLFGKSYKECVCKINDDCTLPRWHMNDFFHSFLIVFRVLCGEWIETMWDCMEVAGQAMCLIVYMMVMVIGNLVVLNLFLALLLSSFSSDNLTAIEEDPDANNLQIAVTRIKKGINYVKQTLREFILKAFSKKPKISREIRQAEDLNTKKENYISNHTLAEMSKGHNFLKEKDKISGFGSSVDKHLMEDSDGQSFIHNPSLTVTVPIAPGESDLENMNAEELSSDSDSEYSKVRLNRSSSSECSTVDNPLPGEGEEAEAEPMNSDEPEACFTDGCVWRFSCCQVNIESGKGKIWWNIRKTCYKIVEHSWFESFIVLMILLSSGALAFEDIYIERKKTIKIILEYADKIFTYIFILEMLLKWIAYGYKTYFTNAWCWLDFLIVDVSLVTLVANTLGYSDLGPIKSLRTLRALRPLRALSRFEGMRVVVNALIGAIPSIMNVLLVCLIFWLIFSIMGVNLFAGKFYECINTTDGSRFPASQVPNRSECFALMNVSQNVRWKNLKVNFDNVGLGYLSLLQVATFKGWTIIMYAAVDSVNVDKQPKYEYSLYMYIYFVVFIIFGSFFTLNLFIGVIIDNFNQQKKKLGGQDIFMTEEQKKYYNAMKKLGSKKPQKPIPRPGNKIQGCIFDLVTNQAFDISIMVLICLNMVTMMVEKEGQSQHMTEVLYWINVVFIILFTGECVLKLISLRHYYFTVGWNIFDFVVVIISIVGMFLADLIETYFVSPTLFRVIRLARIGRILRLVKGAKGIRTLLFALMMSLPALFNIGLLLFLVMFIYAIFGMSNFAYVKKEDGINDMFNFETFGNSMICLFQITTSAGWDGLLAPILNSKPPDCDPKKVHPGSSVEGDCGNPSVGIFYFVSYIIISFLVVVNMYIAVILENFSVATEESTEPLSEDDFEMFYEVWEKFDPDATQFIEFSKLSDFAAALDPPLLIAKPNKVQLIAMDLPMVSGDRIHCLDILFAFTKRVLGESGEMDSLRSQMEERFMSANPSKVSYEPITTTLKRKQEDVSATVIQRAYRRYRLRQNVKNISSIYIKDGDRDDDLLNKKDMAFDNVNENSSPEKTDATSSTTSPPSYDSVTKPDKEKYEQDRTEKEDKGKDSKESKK

**Q.** Which IC50 does the source give for `CS(=O)(=O)NC(=O)c1ccc(Oc2nccc3ccccc23)c(Cl)c1` [Example L36, 3-chloro-4-(isoquinolin-1-yloxy)-N-(methylsulfonyl)benzamide] here?
**A.** > 323 µM

**Q.** For `CS(=O)(=O)NC(=O)c1ccc(Oc2cncc3ccccc23)c(C#N)c1` [Example L37, 3-cyano-4-(isoquinolin-4-yloxy)-N-(methylsulfonyl)benzamide], which IC50 is on record?
**A.** > 323 µM

**Q.** With `CS(=O)(=O)NC(=O)c1cc(Cl)c(Oc2nccc3ccccc23)cc1F` [Example L38, 5-chloro-2-fluoro-4-(isoquinolin-1-yloxy)-N-(methylsulfonyl)benzamide] as the molecule, how does the IC50 read?
**A.** > 323 µM

**Q.** For `CS(=O)(=O)NC(=O)c1ccc(Oc2cc3ccccc3cn2)c(C#N)c1` [Example L43, 3-cyano-4-(isoquinolin-3-yloxy)-N-(methylsulfonyl)benzamide], which IC50 is on record?
**A.** 41 µM

**Q.** For `Cn1cnc2cccc(Oc3cc(F)c(C(=O)NS(C)(=O)=O)cc3Cl)c21` [Example L44, 5-chloro-2-fluoro-4-[(1-methyl-1H-benzimidazol-7-yl)oxy]-N-(methylsulfonyl)benzamide], which IC50 is on record?
**A.** > 323 µM

**Q.** How did the IC50 turn out when `COc1c(C(=O)NS(C)(=O)=O)ccc(Oc2ccc(Oc3ccc(F)cc3)nc2)c1F` [Example L47, 3-fluoro-4-{[6-(4-fluorophenoxy)pyridin-3-yl]oxy}-2-methoxy-N-(methylsulfonyl)benzamide] was run?
**A.** 121 µM

**Q.** For `CCCc1ccc(Oc2ccc(C(=O)NS(C)(=O)=O)cc2F)cn1` [Example L48, 3-fluoro-N-(methylsulfonyl)-4-[(6-propylpyridin-3-yl)oxy]benzamide], which IC50 is on record?
**A.** 38.5 µM

**Q.** With `Cc1ccc(Oc2ccc(C(=O)NS(C)(=O)=O)cc2F)cn1` [Example L51, 3-fluoro-4-[(6-methylpyridin-3-yl)oxy]-N-(methylsulfonyl)benzamide] as the molecule, how does the IC50 read?
**A.** 300 µM

**Q.** How did the IC50 turn out when `CCc1ccc(Oc2ccc(C(=O)NS(C)(=O)=O)c(C)c2)cn1` [Example L55, 4-[(6-ethylpyridin-3-yl)oxy]-2-methyl-N-(methylsulfonyl)benzamide] was run?
**A.** 300 µM

**Q.** With `Cc1ncc(Oc2ccc(C(=O)NS(C)(=O)=O)cc2Cl)cn1` [Example L58, 3-chloro-4-[(2-methylpyrimidin-5-yl)oxy]-N-(methylsulfonyl)benzamide] as the molecule, how does the IC50 read?
**A.** 216 µM

**Q.** For `Cc1ncc(Oc2ccc(C(=O)NS(C)(=O)=O)cc2C(F)(F)F)cn1` [Example L61, 4-[(2-methylpyrimidin-5-yl)oxy]-N-(methylsulfonyl)-3-(trifluoromethyl)benzamide], which IC50 is on record?
**A.** 100 µM

**Q.** Which IC50 does the source give for `COc1c(C(=O)NS(C)(=O)=O)ccc(Oc2cnc(N3CCCCC3)nc2)c1F` [Example L62, 3-fluoro-2-methoxy-N-(methylsulfonyl)-4-[(2-piperidin-1-ylpyrimidin-5-yl)oxy]benzamide] here?
**A.** 57.4 µM

**Q.** `CS(=O)(=O)NC(=O)c1ccc(Oc2cncnc2)c(Cl)c1` [Example L64, 3-chloro-N-(methylsulfonyl)-4-(pyrimidin-5-yloxy)benzamide] was tested. Which IC50 did it give?
**A.** > 323 µM
